Test results reported in article PMC1431542, “Cyclic nucleotide specific phosphodiesterases of Leishmania major” (BMC Microbiology, 2006).

Columns and labels:
[1] = molecular target: T1, LmjPDEB1 (Leishmania major, UniProt Q6S996); assay: 3H-cAMP phosphodiesterase assay in yeast lysate; format: cell-based
T1 construct: gene PDEB1; full-length, hemagglutinin-tagged
T1 sequence (Q6S996 1-940): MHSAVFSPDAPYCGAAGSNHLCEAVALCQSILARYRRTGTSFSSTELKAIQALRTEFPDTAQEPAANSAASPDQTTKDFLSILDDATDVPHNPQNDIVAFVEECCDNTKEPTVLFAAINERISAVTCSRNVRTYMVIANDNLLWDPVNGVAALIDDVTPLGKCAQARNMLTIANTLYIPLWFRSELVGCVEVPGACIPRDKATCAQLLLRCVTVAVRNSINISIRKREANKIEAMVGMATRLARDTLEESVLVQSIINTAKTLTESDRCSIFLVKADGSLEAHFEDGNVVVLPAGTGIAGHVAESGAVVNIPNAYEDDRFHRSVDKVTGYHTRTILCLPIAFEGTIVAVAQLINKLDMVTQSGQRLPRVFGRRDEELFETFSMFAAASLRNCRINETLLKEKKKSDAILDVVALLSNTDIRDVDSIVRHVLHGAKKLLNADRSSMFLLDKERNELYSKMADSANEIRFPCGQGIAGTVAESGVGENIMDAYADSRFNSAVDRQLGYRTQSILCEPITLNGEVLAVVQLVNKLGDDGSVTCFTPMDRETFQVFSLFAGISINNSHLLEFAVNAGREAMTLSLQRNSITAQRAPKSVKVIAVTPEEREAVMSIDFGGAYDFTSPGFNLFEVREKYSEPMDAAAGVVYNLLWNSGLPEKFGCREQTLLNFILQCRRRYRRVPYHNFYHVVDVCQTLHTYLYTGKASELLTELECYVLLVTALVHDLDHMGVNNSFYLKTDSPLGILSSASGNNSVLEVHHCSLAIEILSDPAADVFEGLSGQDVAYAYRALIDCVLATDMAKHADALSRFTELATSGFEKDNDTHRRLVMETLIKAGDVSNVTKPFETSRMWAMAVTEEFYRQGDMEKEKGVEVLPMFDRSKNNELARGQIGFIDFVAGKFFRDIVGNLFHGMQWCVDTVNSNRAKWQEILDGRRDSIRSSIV

[2] = molecular target: T2, LmjPDEB2 (Leishmania major, UniProt Q6S997); assay: biochemical
T2 construct: gene PDEB2; full-length, hemagglutinin-tagged
T2 sequence (Q6S997 entry or part of it): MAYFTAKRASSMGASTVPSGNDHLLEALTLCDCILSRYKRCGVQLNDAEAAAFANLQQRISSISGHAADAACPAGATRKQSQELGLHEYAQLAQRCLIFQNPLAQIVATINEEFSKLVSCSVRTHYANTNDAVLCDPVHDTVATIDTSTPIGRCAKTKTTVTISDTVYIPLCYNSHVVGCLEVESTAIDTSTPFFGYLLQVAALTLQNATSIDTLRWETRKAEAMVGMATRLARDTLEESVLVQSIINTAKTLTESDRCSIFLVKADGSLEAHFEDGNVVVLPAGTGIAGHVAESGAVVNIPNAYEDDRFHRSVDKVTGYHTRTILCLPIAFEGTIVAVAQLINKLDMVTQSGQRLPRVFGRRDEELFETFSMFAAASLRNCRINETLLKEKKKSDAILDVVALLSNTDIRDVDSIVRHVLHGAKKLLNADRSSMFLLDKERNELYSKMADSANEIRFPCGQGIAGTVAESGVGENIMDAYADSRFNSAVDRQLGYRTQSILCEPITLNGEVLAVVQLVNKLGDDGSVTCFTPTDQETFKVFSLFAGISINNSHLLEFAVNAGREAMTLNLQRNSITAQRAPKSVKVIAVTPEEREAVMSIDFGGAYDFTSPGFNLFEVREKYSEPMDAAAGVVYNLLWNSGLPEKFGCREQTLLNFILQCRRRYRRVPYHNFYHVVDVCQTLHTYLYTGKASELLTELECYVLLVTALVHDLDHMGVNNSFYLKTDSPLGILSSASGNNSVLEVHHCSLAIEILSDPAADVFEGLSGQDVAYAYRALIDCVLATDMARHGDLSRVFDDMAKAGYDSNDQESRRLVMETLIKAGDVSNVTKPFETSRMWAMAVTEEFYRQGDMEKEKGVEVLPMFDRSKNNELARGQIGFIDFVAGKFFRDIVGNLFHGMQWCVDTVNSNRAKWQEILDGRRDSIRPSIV

SMILES	3H-cAMP phosphodiesterase assay in yeast lysate [1]	IC50 [2] [µM]
OCCN(CCO)c1nc(N2CCCCC2)c2nc(N(CCO)CCO)nc(N3CCCCC3)c2n1 [compound 4, dipyridamole]	Only dipyridamole, trequinsin and etazolate exhibited at least a moderate potency.	29
COc1cc2c(cc1OC)-c1c/c(=N\c3c(C)cc(C)cc3C)n(C)c(=O)n1CC2 [compound 9, trequinsin]	Only dipyridamole, trequinsin and etazolate exhibited at least a moderate potency.	96
CCOC(=O)c1cnc2c(cnn2CC)c1NN=C(C)C [compound 3, etazolate]	Only dipyridamole, trequinsin and etazolate exhibited at least a moderate potency.	
